As a reminder, the ED50 is the midpoint of the dose-response relation. By TD50 is commonly meant the dose at which the toxic effect under study appears in half of the subjects. High values mean lower toxicity, low ones greater toxicity. The term melting point denotes the temperature of the solid-liquid transition.

Experimental findings from US12139458B2, “(2,5-dioxopyrrolidin-1-yl)(phenyl)-acetamide derivatives and their use in the treatment of neurological diseases” (UNIWERSYTET JAGIELLONSKI, priority 2019, dated 2024) are described below.

Series [1] deals with male Swiss albino mice (CD-1). Description: Psychomotor seizure test 6 Hz (32 mA). The class given is in vivo. The conditions noted are these: Mus musculus, ip, 0.5 h, mice; for responders at 100 mg/kg: screening, 100 mg/kg i.p., read-out: 6 Hz (32 mA): number of mice protected/number of mice tested (converted). How it is done:
(§1) The male Swiss albino mice (CD-1) weighing 18-26 g were used. All procedures were carried out in accordance with applicable Polish and international guidelines on the ethics of animal testing, after obtaining appropriate institutional approval. The substances were administered intraperitoneally (i.p.), in 1% aqueous solution of Tween, as single injections with a volume of 10 ml/kg, 30 minutes before the given test. Screening was performed on groups consisted of 4 mice. The average effective dose (ED50) in given test and toxic dose in the rotarod test (TD50) was estimated based on the results obtained in 3-4 groups of animals consisting of 6 mice. All tests were carried out based on the procedures described in the specialist literature.
In the 6 Hz test, seizures were induced by an electric stimulus of 32 mA and/or 44 mA and a frequency of 6 pulses per second. An electrical pulse was generated using an electric shock generator (ECT Unit 57800; Ugo Basile, Gemonio, Italy) and delivered to the animal using ocular electrodes. Before starting the test, the eye surface was gently moistened with a solution of local anesthetic (1% lidocaine solution). The study was conducted 30 minutes after intraperitoneal administration of the compounds at various doses. An electrical pulse was delivered continuously for a period of 3 seconds, followed by observation of the animal for a period of 10 seconds. During this time, immobility or stun associated with rearing, forelimb clonus, twitching of the vibrissae and Straub's tail were observed. These symptoms persist throughout the observation period, indicating the occurrence of psychomotor seizures in mice. Mice resuming normal behavior within 10 s after stimulation were considered as protected (Barton, M. E.; Klein, B. D.; Wolf, H. H.; White, H. S. Epilepsy Res. 2001, 47, 217-227; Wojda, E.; Wlaź, A.; Patsalos, P. N.; Łuszczki, J. J. Epilepsy Res. 2009, 86, 163-174).
(§2) To perform a statistical evaluation of the results, one-way ANOVA variance analysis and Dunnett's post hoc test (multiple comparison test) were used. The value at the significance level p<0.05 was considered statistically significant.

The test system of series [2] is male Swiss albino mice (CD-1). Put plainly: Psychomotor seizure test 6 Hz (44 mA). It is filed as in vivo. The conditions noted are these: 0.5 h, mice; for ED50: Mus musculus, ip; for 6 Hz (44 mA): number of mice protected/number of mice tested: screening, 100 mg/kg i.p. As for the experimental part:
(§3) All procedures were carried out in accordance with applicable Polish and international guidelines on the ethics of animal testing, after obtaining appropriate institutional approval. The substances were administered intraperitoneally (i.p.), in 1% aqueous solution of Tween, as single injections with a volume of 10 ml/kg, 30 minutes before the given test. Screening was performed on groups consisted of 4 mice. […] All tests were carried out based on the procedures described in the specialist literature.
In the 6 Hz test, seizures were induced by an electric stimulus of 32 mA and/or 44 mA and a frequency of 6 pulses per second. […] Before starting the test, the eye surface was gently moistened with a solution of local anesthetic (1% lidocaine solution). The study was conducted 30 minutes after intraperitoneal administration of the compounds at various doses. An electrical pulse was delivered continuously for a period of 3 seconds, followed by observation of the animal for a period of 10 seconds. During this time, immobility or stun associated with rearing, forelimb clonus, twitching of the vibrissae and Straub's tail were observed. These symptoms persist throughout the observation period, indicating the occurrence of psychomotor seizures in mice.
as §2

In series [3] the test system is male Swiss albino mice (CD-1). Put plainly: Maximal electroshock seizure test (MES). It is filed as in vivo. To be noted: 0.5 h, mice; for ED50 / responders at 100 mg/kg: Mus musculus, ip; for responders at 100 mg/kg: read-out: MES: number of mice protected/number of mice tested (converted). How it is done: as §1
In the MES test, the seizures were induced by an electrical stimulus lasting of 0.2 s duration, 500 V voltage and 25 mA intensity. The electrical stimuli was generated using an electric shock generator (Rodent shocker, Type 221, Hugo Sachs Elektronik, Germany) and delivered to the animal using electrodes placed on the auricles. The study was conducted 30 minutes after intraperitoneal administration of the compounds at various doses. During the experiment, the number of animals that experienced a seizure episode in the form of tonic extension of the hind limbs was counted (Kamiński, K.; Rapacz, A.; Łuszczki, J. J.; Latacz, G.; Obniska, J.; Kieć-Kononowicz, K.; Filipek, B. Bioorg. Med. Chem. 2015, 23, 2548-2561; Castel-Branco, M. M.; Alves, G. L.; Figueiredo, I. V.; Falcão, A. C.; Caramona, M. M. Methods Find. Exp. Clin. Pharmacol. 2009, 31, 101-106).
as §2
(Protection in the maximal electroshock model is a classic sign of anticonvulsant action.)

In series [4] the test system is male Swiss albino mice (CD-1). Put plainly: Subcutaneous pentylenetetrazole seizure test (scPTZ). The class given is in vivo. The conditions noted are these: 0.5 h, mice; for ED50 / responders at 100 mg/kg: Mus musculus, ip; for responders at 100 mg/kg / scPTZ: number of mice protected/number of mice tested: screening, 100 mg/kg i.p.; for responders at 100 mg/kg: read-out: scPTZ: number of mice protected/number of mice tested (converted). As for the experimental part: as §1
In the scPTZ test, seizures were induced by subcutaneous administration of pentylenetetrazole (PTZ) at a dose of 100 mg/kg. This caused clonic seizures with accompanying loss of the righting reflex. Test compounds were administered 30 minutes before the experiment. After PTZ administration, the animals were placed individually in transparent containers and observed for a period of 30 minutes for the occurrence of clonic seizures. During this time, the latency of the first onset of clonic seizures, defined as clonus of the whole body lasting at least 3 seconds with loss of the righting reflex and the number of seizure episodes during the test were noted and compared with control group. The absence of clonic convulsions within the observed time period was interpreted as the compound's ability to protect against PTZ-induced seizures (Ferreri, G.; Chimirri, A.; Russo, E.; Gitto, R.; Gareri, P.; De Sarro, A.; De Sarro, G. Pharmacol. Biochem. Behav. 2004, 77, 85-94; Łączkowski, K.; Sałat, K.; Misiura, K.; Podkowa, A.; Malikowska, N. J. Enzyme Inhib. Med. Chem. 2016, 31, 1576-82).
as §2

A short description of series [5]: Rotarod test (motor coordination). It is filed as in vivo. The conditions noted are these: male, Swiss albino (CD-1), mouse, in vivo, ip, mice. As for the experimental part:
as §3
Mice were trained the day before the actual experiment. They were placed individually on a 2 cm diameter rod rotating at 10 revolutions per minute (rpm). During each training session, the animals remained on the rod for 3 minutes. The experiment was carried out 30 minutes after administration of the compounds. Motor coordination was tested at the speed of the rotating bar: 10 rpm during 60 seconds. Motor impairments were defined as the inability to remain on the rotating rod for 1 min.
as §2
(In general: The rotarod test checks motor coordination on a turning rod.)

Series [6] in a line: Metabolic stability in human liver microsomes. The class given is in vitro ADME. How it is done: Metabolic stability. The metabolic stability of compound 6 was evaluated using human liver microsomes (HLMs). Internal clearance values CLint were calculated by monitoring changes in compound concentration in the presence of microsomes per unit of time, according to the procedure proposed by Obach R. S. (Obach, R. S. Drug Metab. Dispos. 1999, 27, 1350-1359).
Metabolic stability tests—methodology. Metabolic stability studies for compound 6 were performed using HLMs (Promega, Madison, WI, USA). For this purpose, 10 μL of compound 6 at a concentration of 1000 μM was diluted with 132 μL with tris-HCl buffer (100 mM, pH 7.4), followed by the addition of 8 μL of appropriate microsomes. The reaction mixture was preincubated at 37° C. for 5 minutes, followed by the addition of 50 μL of NADPH Regeneration System, supplied by Promega (Madison, WI, USA). After mixing, the whole mixture was incubated at 37° C. for 120 minutes. To complete the reaction, 200 μL of cold methanol was added to the tubes and centrifuged. The supernatant was subjected to UPLC/MS analysis, including fragmentation analysis. Four mixtures of 6 with HLMs were prepared to determine the internal clearance CLint. Each of these reactions was completed at a different time point, after 5, 15, 30 and 45 min, by the addition of cold methanol containing 50 μM internal standard. Then, according to literature guidelines (Obach, R. S. Drug Metab. Dispos. 1999, 27, 1350-1359), based on the plot of the relationship between the height of the peak from 6 and the height of the internal standard, the regression equation was determined and the reaction rate constant k was calculated. Then the constant k was substituted to equation (1).
The calculated t1/2 value was then substituted into equation (2): […]

Take `O=C(C(c1ccccc1)N1C(=O)CCC1=O)N1CCN(c2cccc(C(F)F)c2)CC1` (racemic) [Compound 9, 1-(2-Oxo-1-phenyl-2-(4-(3-(difluoromethyl)phenyl)piperazin-1-yl)ethyl)pyrrolidine-2,5-dione]: the melting point fell in the range of 156.4 to 157.6 °C. The compound also registered a 50% effective dose (ED50) in series [1] of 63 mg/kg. For the same compound, it took a dose of 196 mg/kg to reach the 50% effect level in series [2] (ED50). The compound also yielded an ED50 in series [3] of 97.7 mg/kg. Besides, in series [4], the ED50 turned out to be 94.3 mg/kg. Also, the TD50 at 0.5 h in series [5] was found to be 274 mg/kg.
Turning to `O=C(C(c1ccccc1)N1C(=O)CCC1=O)N1CCN(c2cccc(OC(F)(F)F)c2)CC1` (racemic) [Compound 10, 1-(2-Oxo-1-phenyl-2-(4-(3-(trifluoromethoxy)phenyl)piperazin-1-yl)ethyl)pyrrolidine-2,5-dione], the melting point is 100.3 to 101.6 °C. For the same compound, in series [1], it took a dose of 38.3 mg/kg to reach the 50% effect level (ED50) and the responders at 100 mg/kg was 100%. The “6 Hz (44 mA): number of mice protected/number of mice tested” value in series [2] is recorded as “¾”. In series [3], the ED50 amounted to 41.7 mg/kg. For the same compound, in series [3] (screening, 100 mg/kg i.p.), the responders at 100 mg/kg is 100%. In addition, in series [4], the median effective dose (ED50) was under 60 mg/kg and the responders at 100 mg/kg is 50%. The same compound displayed a TD50 at 0.5 h in series [5] of 74 mg/kg.
Take `O=C(C(c1ccccc1)N1C(=O)CCC1=O)N1CCN(c2cccc(-c3ccccc3)c2)CC1` (racemic) [Compound 13, 1-(2-(4-([1,1′-Biphenyl]-3-yl)piperazin-1-yl)-2-oxo-1-phenylethyl)pyrrolidine-2,5-dione]: the melting point lay within 114.1 to 115.4 °C. For the same compound, in series [1], the 50% effective dose (ED50) was found to be 26.2 mg/kg and the responders at 100 mg/kg was 100%. The “6 Hz (44 mA): number of mice protected/number of mice tested” value in series [2] is 4/4. Moreover, in series [3], the median effective dose (ED50) turned out to be 43.9 mg/kg. Further, the responders at 100 mg/kg in series [3] (screening, 100 mg/kg i.p.) is 100%. Further, in series [4], the 50% effective dose (ED50) is under 100 mg/kg and the responders at 100 mg/kg is 50%. This compound also showed a TD50 at 0.5 h in series [5] of 73.6 mg/kg.
Compound `O=C(C(c1ccccc1)N1C(=O)CCC1=O)N1CCC(c2cccc(C(F)(F)F)c2)CC1` (racemic) [Compound 19, 1-(2-Oxo-1-phenyl-2-(4-(3-(trifluoromethyl)phenyl)piperidin-1-yl)ethyl)pyrrolidine-2,5-dione] returned a melting point of 100.1 to 101.5 °C. In series [1], the ED50 is 41 mg/kg and the responders at 100 mg/kg is 100%. Also, the “6 Hz (44 mA): number of mice protected/number of mice tested” value in series [2] is listed as 2/4. In addition, it took a dose of 81.8 mg/kg to reach the 50% effect level in series [3] (ED50). In series [3] (screening, 100 mg/kg i.p.), the responders at 100 mg/kg is 100% and the “MES: number of mice protected/number of mice tested” value is “¾”. Moreover, in series [4], the ED50 is under 100 mg/kg and the responders at 100 mg/kg was 100%. The “scPTZ: number of mice protected/number of mice tested” value in series [4] (100 mg/kg) is listed as “¾”. The same compound came in with a TD50 at 0.5 h in series [5] of 254 mg/kg.
In the case of `O=C([C@@H](c1ccccc1)N1C(=O)CCC1=O)N1CCN(c2cccc(C(F)(F)F)c2)CC1` [(R)-6, (R)-1-(2-Oxo-1-phenyl-2-(4-(3-(trifluoromethyl)phenyl)piperazin-1-yl)ethyl) pyrrolidine-2,5-dione], the ED50 in series [1] was 39.1 mg/kg; in series [2], 115 mg/kg; in series [3] it was 36 mg/kg; in series [4], 54.8 mg/kg. In addition, the responders at 100 mg/kg in series [1] is 100%; in series [3] (screening, 100 mg/kg i.p.), 100%. Also, the “6 Hz (44 mA): number of mice protected/number of mice tested” value in series [2] is “¾”. Further, the “scPTZ: number of mice protected/number of mice tested” value in series [4] is on record as “¾”. In series [5], the TD50 at 0.5 h came to 468 mg/kg. Moreover, the “metabolites found by UPLC after incubation with HLMs” value in series [6] (120 min incubation, UPLC/MS) is “two metabolites”. Also, the CLint scaled at 50 µM in series [6] (human, human liver microsomes, pH 7.4, incubation with HLMs, read-out: internal clearance CLint) turned out to be 2.4 mL/min/kg.
